Measurements as given in patent US20260240846A1, “ZAK ALPHA KINASE (MAP3K20) INHIBITORS FOR USE IN THE TREATMENT OF ANEMIA” (UNIVERSIDAD DE MURCIA, priority 2023, published 2026).

Key:
caspase-1 [1] = assay: Caspase-1 activity assay in zebrafish larvae (Z-YVAD-AFC); type: in vivo, Zebrafish (Danio rerio H.)
Description: FIG. 6. NLRP1 is activated by phosphorylation of the linker domain after activation of ZAKα and pharmacological inhibition of this signaling pathway promotes erythropoiesis in DBA. (A-D) Number of neutrophils (A-C), and caspase-1 activity (D) in 2 dpf larvae obtained by injection of one-cell stage embryos with human NLRP1 (wild type-WT, S107A and S107D) and treated from 1 to 2 dpf by bath immersion with 1 μM nilotinib (B-D). Representative images of neutrophils (arrows) are also shown in C. (E, F) BMMCs from a DBA patient were incubated for 2 weeks in human methylcellulose complete medium at 37° C. in the presence or absence of the indicated concentrations of nilotinib, and colonies were counted using standard morphological criteria. Each dot represents one individual and the mean±SEM for each group is also shown. P values were calculated by one-way ANOVA and Tukey's multiple range test. n.s., non-significant; *P<0.05; **P<0.01; ***P<0.001; ****P<0.0001. […]
Caspase-1 activity was determined with the fluorometric substrate Z-YVAD 7-Amido-4-trifluoromethylcoumarin (Z-YVAD-AFC, caspase-1 substrate VI, Calbiochem). […] After incubation, the fluorescence of AFC released from the Z-YVAD-AFC substrate was measured with a FLUOstart spectrofluorometer (BGM, LabTechnologies) at an excitation wavelength of 405 nm and an emission wavelength of 492 nm.

[2] = system: bone marrow mononuclear cells of a DBA patient with a RPS19 mutation; assay: Colony assay of BMMCs from a DBA patient in methylcellulose medium; type: cell-based, human; conditions: 2 weeks
Description: FIG. 6. NLRP1 is activated by phosphorylation of the linker domain after activation of ZAKα and pharmacological inhibition of this signaling pathway promotes erythropoiesis in DBA. (A-D) Number of neutrophils (A-C), and caspase-1 activity (D) in 2 dpf larvae obtained by injection of one-cell stage embryos with human NLRP1 (wild type-WT, S107A and S107D) and treated from 1 to 2 dpf by bath immersion with 1 μM nilotinib (B-D). Representative images of neutrophils (arrows) are also shown in C. (E, F) BMMCs from a DBA patient were incubated for 2 weeks in human methylcellulose complete medium at 37° C. in the presence or absence of the indicated concentrations of nilotinib, and colonies were counted using standard morphological criteria. Each dot represents one individual and the mean±SEM for each group is also shown. P values were calculated by one-way ANOVA and Tukey's multiple range test. n.s., non-significant; *P<0.05; **P<0.01; ***P<0.001; ****P<0.0001.
Bone marrow aspirates were collected at the Hospital General Universitario José Maria Morales Meseguer under CEIC approval number EST: 12/16. […] BMMCs were incubated in methylcellulose medium at 37° C. in a 5% CO2-humidified atmosphere in the presence of DMSO or nilotinib (0.01 and 0.1 μM), and colonies were counted at day 9 and 14 using standard morphological criteria.

K562 cells = assay: Transcriptomic analysis (RNA seq) and RT-qPCR of erythroid genes in K562 cells; type: cell-based, human
Description: FIG. 12. Nilotinib promotes an erythroid gene expression profile in human K562 cells. K562 cells were pretreated with the indicated concentrations of 0.1 μM nilotinib, for 24 h and then differentiated with 50 μM hemin for additional 24 h. RNA was extracted and transcriptomic analysis performed by RNA seq. (A) Heatmap of selected erythroid genes. (B) Validation of nilotinib-induced erythroid genes by RT-qPCR. Each dot represents a biological replicate and the mean±SEM for each group is also shown.

[3] = system: RPS19-deficient CD34+ cells; assay: Human RPS19-edited model of DBA: erythroid differentiation with EPO; type: cell-based; conditions: EPO 13 days, 0.1 μM nilotinib (FIGS. 14A-14C)
Description: (§1) FIG. 14. Nilotinib promotes erythropoiesis in a human RPS19-edited model of DBA. RPS19 gene was edited in primary human CD34^+/CD133^+ cells with CRISPR-Cas9 technology and the cells were then differentiated with EPO for 13 days in the presence of absence of 0.1 μM nilotinib. (A) Representative flow cytometry dot plots of CD235-APC vs. CD71-FITC from control and RPS19-edited cells at 13 days of differentiation with EPO. (B) Cell surface expression of CD235A from control (mock) and RPS19-deficient cells treated with DMSO or nilotinib. (C) Percentage of mature erythrocytes (CD71^−/CD235A^+) vs. percentage of erythroid progenitors (CD71^+/CD235A^−) in RPS19-deficient cells treated with DMSO or 0.1 μM nilotinib. (D) CASP1 activity of control and RPS19-deficient cells treated with DMSO or 0.1 μM nilotinib. MFI, mean fluorescence intensity.

caspase-1 [4] = assay: CASP1 activity in RPS19-edited model of DBA; type: cell-based, human; conditions: 0.1 μM nilotinib (FIG. 14D)
Description: as §1

`Cc1cn(-c2cc(NC(=O)c3ccc(C)c(Nc4nccc(-c5cccnc5)n4)c3)cc(C(F)(F)F)c2)cn1` [nilotinib] was tested, and the “caspase-1 activation induced by NLRP1 with phosphomimetic S107D mutation” value (caspase-1 [1]; larvae expressing human NLRP1 S107D, 1 μM nilotinib 1 to 2 dpf) was “failed to reverse”, the “caspase-1 activation induced by wild type NLRP1” value (caspase-1 [1]; larvae expressing human wild type NLRP1, 1 μM nilotinib 1 to 2 dpf) was “able to abrogate” and the “number of erythroid colonies” value ([2]; nilotinib 0.01 and 0.1 μM (FIG. 6E)) was “strongly increased”. The “number of myeloid colonies” value ([2]; nilotinib 0.01 and 0.1 μM (FIG. 6F)) was “not affected”, the “transcript levels of erythroid genes (RT-qPCR)” value (K562 cells; K562 cells incubated with nilotinib) was “increased transcript levels” and the “expression of erythroid genes (transcriptomic analysis)” value (K562 cells; K562 cells, 0.1 μM nilotinib 24 h, control cells and upon hemin 24 h, RNA seq) was “robustly induced”. The “defective erythropoiesis of RPS19-deficient CD34+ cells” value [3] was “rescued defective erythropoiesis” and the “exacerbated caspase-1 activity of RPS19-deficient cells” value (caspase-1 [4]) was “reduced to control levels”.
